The results in this text go back to patent publication US8575210B2, “Use of indole derivatives as NURR-1 activators for treating parkinson's disease” (Laboratoires Fournier SA, priority 2008, dated 2013).

What is called EC50 is the concentration needed to bring the measured effect to its halfway point. Low readings indicate a more potent agent, high ones a less potent agent.

Series [1] concerns the target T1, hNurr1_RXRγFL (NURR-1/RXRγ heterodimer) (Homo sapiens, UniProt P48443).
T1 construct: EC50 hNurr1_RXRγFL; other: Cos-7 cells, Gal4 luciferase reporter; other: level of induction relative to XCT0135908 at; hNurr1_RXRγFL
Nature of the series: Transactivation assay, NURR-1-Gal4/RXRγ luciferase reporter in Cos-7 cells. Type of series: cell-based. The settings on record: for Emax: COS-7, level of induction relative to XCT0135908 at 2×10^-5 M = 100%, read-out: Eff hNurr1_RXRγFL (efficacy relative to the reference XCT0135908); for EC50: Cos-7 cells, Gal4 luciferase reporter. How it is done: (§1) To start with, using an in vitro assay, the capacity of the compounds according to the invention to behave as an activator of the heterodimers formed by the NURR-1 nuclear receptor and the RXR nuclear receptors was measured.
(§2) A transactivation assay was used as a primary screening test. Cos-7 cells were co-transfected with a plasmid expressing a chimera of the human receptor NURR-1-Gal4, a plasmid expressing the RXR human receptor (RXRα or RXRγ receptor) and a reporter plasmid 5Gal4pGL3-TK-Luc. The transfections were carried out using a chemical agent (Jet PEI).
(§3) The transfected cells were distributed in 384-well plates and left to stand for 24 hours.
(§4) After 24 hours, the culture medium was changed. The test products were added (final concentration between 10^−4 and 3.10^−10 M) in the culture medium. After incubation overnight, the expression of luciferase was measured after addition of “SteadyGlo” in accordance with the manufacturer's (Promega) instructions.
(§5) 4-[[6-Methyl-2-phenyl-5-(2-propenyl)-4-pyrimidinyl]amino]benzoic acid (called XCT0135908) at 2×10^−5 M (RXR agonist) was used as reference.
(§6) The levels of induction were calculated in relation to the basal activity of each heterodimer. The results were expressed as a percentage of the level of induction relative to the level of induction obtained with the reference (the level of induction of the reference is arbitrarily equal to 100%).
A general note: Reporter assays use an easily measured gene product as a stand-in for the process of interest.

For series [2], the target named is T2, hNurr1_RXRαFL (NURR-1/RXRα heterodimer) (Homo sapiens, UniProt P19793).
T2 construct: hNurr1_RXRαFL
Nature of the series: Transactivation assay, NURR-1-Gal4/RXRα luciferase reporter in Cos-7 cells. The settings on record: for Emax: COS-7, level of induction relative to XCT0135908 at 2×10^-5 M = 100%, read-out: Eff hNurr1_RXRαFL (efficacy relative to the reference XCT0135908); for EC50: Cos-7 cells, Gal4 luciferase reporter. Type of series: cell-based. The protocol:
as §1, §2, §3, §4, §5, §6

Series [3] is described as follows: Cerebral and plasma pharmacokinetic profile after oral administration in mice. Type of series: in vivo, male C57Bl6 mouse. The settings on record: oral administration 10 mg/kg in mice; for Kp: male, C57Bl6, mouse, brain/plasma, read-out: Ratio AUCbrain/AUCplasma; for AUCbrain: AUC0-t, up to 8 h. How it is done: The protocol used was as follows:
Male C57Bl6 mice (25-30 g) from Janvier, Le Genest-St-Isle, France, were used for this study (12 mice per dose).
The animals were fed with standard rodent feed (Purina Mills, St. Louis, Mo.), and were placed in cages and subjected to 12 h/12 h light/dark cycles, the room temperature being maintained at 22±2° C. and the humidity level at 55±10%.
The mice were not fasted before administration. Water was supplied ad libitum throughout the study.
The test compound was administered orally at 10 mg/kg.
For oral administration at 10 mg/kg, the animals were fed by gavage with 10 mL/kg of a suspension of the test compound, prepared in 1% methylcellulose 400 cp.
The animals were sacrificed under anaesthesia at times 15 min, 30 min, 1 h, 3 h, 6 h and 8 h after gavage.
At each time, and on each sacrificed animal, the blood was collected and the brain was removed.
1 mL of blood collected in 1.5 mL tubes containing 20 μL of evaporated anticoagulant (solution of sodium heparinate at 1000 UI/mL) was centrifuged at 4500 g for 3 min to give approximately 400 μL of plasma. The plasma was divided into 2 aliquots of 200 μL, which were stored at −20° C. until extraction by protein precipitation, followed by analysis by liquid chromatography coupled with tandem mass spectrometry (LC-MS/MS) for the quantification of the test compound.
Immediately after their removal, the brains were plunged into liquid nitrogen and then stored at −20° C. for analysis. The brains were subsequently ground in the presence of aqueous/organic solvent mixture to give a homogenate. These homogenates were subsequently centrifuged and the test compound was extracted from the resulting supernatant, by liquid-liquid extraction, and then quantified by LC-MS/MS.
The pharmacokinetic parameters were determined on the basis of a non-compartmental approach in Excel. The area under the curve (AUC0-t) was determined by the linear trapezoidal method.

The test system of series [4] is mice treated with 1-methyl-4-phenyl-1,2,3,6-tetrahydropyridine (MPTP). Description: Neuroprotection in MPTP-treated mice, striatal dopamine. The settings on record: oral, twice daily for 11 days; MPTP 20 or 25 mg/kg i.p. for 5 days; FIGS. 1 to 3. It counts as in vivo, male C57BL6/J mice. How it is done:
The compound of Example 2 was tested on a model of mice treated with 1-methyl-4-phenyl-1,2,3,6-tetrahydropyridine (MPTP), in order to confirm its potential activity. MPTP is a neurotoxin which gives rise to permanent symptoms of Parkinson's disease by destroying certains neurons in the substantia nigra of the brain. The protocol used was as follows.
Male C57BL6/J mice, aged 10-12 weeks at the beginning of the studies, were divided into groups of 8 animals. The compound was administered orally and twice daily for 11 days in total. Administration was commenced 3 days before treatment with the MPTP toxin at 20 or 25 mg/kg. MPTP was administered once daily by intraperitoneal injection for 5 days. The administration of the test compound was continued for 3 days after the treatment with MPTP. One group of mice received the vehicle alone (0.5% methylcellulose solution). The animals were euthanized after the final gavage, and the striatum was removed. The dopamine was extracted from the striatum, and the amount of dopamine (DA), expressed in ng per g of striatum (mean±SEM), was measured by high-performance liquid chromatography (HPLC) with electrochemical detection.
The results obtained were reported in attached FIGS. 1 to 3.

Structures are written as SMILES.

T2 sequence (P43354 328-598): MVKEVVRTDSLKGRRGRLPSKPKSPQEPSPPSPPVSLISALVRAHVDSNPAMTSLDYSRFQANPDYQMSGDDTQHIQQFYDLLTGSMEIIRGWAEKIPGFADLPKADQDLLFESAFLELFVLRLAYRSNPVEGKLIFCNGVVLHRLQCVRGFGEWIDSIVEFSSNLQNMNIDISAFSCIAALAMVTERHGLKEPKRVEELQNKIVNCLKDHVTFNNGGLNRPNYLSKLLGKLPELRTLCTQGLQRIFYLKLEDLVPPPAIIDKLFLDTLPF
T2 sequence (P19793 whole entry): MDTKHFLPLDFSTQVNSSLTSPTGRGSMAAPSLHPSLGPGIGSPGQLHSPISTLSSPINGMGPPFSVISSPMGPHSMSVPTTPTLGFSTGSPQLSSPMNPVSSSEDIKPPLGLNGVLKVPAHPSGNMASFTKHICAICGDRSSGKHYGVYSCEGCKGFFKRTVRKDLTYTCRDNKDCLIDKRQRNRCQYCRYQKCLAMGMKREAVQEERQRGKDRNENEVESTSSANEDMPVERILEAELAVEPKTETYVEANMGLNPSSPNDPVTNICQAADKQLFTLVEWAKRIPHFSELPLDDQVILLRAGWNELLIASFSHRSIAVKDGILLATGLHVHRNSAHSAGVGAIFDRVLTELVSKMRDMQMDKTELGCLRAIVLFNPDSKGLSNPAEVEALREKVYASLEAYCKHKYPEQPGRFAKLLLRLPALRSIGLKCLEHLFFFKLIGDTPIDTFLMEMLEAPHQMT
T1 sequence (P48443 whole entry, the tested form may be a part): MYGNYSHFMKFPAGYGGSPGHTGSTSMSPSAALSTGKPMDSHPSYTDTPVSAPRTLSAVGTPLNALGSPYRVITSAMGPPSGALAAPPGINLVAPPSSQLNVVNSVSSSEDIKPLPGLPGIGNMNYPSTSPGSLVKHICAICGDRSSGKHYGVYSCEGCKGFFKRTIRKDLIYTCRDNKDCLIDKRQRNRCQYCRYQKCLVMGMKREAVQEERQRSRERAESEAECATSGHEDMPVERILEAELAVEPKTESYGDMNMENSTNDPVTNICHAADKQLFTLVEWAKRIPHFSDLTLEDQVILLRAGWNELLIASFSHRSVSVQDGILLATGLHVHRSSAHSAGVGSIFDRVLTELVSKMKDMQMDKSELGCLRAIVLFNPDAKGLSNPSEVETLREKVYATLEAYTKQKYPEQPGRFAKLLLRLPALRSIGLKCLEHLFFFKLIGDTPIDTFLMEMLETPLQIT
T1 sequence (P43354 328-598 partner): as the sequence (P43354 328-598) above

Consider `CC(C)c1cccc(S(=O)(=O)n2c(CCCC(=O)O)cc3cc(C(F)(F)F)ccc32)c1` [Example 2, 1-[[3-(1-Methylethyl)phenyl]sulphonyl]-5-(trifluoromethyl)-1H-indole-2-butanoic acid], for which, in series [1], the Emax was 79% and the half-maximal effective concentration (EC50) amounted to 0.113 µM. Moreover, in series [2], the Emax worked out at 86% and the response was half-maximal at 0.073 µM (EC50). Moreover, in series [3], the Kp amounted to 0.67 and the AUCbrain turned out to be 3318. For the same compound, the “Effect on MPTP-induced reduction of dopamine level in the striatum” value (shortened to “Effect on MPTP-induced reduction”) in series [4] is “reduce, in a dose-dependent way, the action of MPTP”.
Regarding `CC(C)(C)c1cccc(S(=O)(=O)n2c(CCCC(=O)O)cc3cc(C(F)(F)F)ccc32)c1` [Example 8, 1-[[3-(1,1-Dimethylethyl)phenyl]sulphonyl]-5-(trifluoromethyl)-1H-indole-2-butanoic acid], in series [1], the Emax was 70% and the EC50 is 0.02 µM. In series [2], the Emax stood at 100% and a half-maximal response (EC50) required 0.026 µM. In series [3], the Kp turned out to be 0.87 and the AUCbrain stood at 2371. In addition, the “Effect on MPTP-induced reduction” value in series [4] was “reduce, in a dose-dependent way, the action of MPTP”.
For `CC(C)(C)c1cccc(S(=O)(=O)n2c(CCCCC(=O)O)cc3cc(C(F)(F)F)ccc32)c1` [Example 10, 1-[[3-(1,1-Dimethylethyl)phenyl]sulphonyl]-5-(trifluoromethyl)-1H-indole-2-pentanoic acid], in series [1], the Emax worked out at 88% and the EC50 amounted to 0.077 µM. Moreover, in series [2], the Emax was 104% and the 50% effective concentration (EC50) was found to be 0.055 µM. Also, in series [3], the Kp was 0.8 and the AUCbrain came out at 1689. Besides, the “Effect on MPTP-induced reduction” value in series [4] was “reduce, in a dose-dependent way, the action of MPTP”.
